Test results: US5707985A, “Naphthyl-, quinolyl- and isoquinolyl- sulfonamide derivatives as cell adhesion modulators” (Tanabe Seiyaku Co. Ltd., priority 1995, dated 1998)
Like-named read-outs stand apart in the source and are kept apart here.

B1: soluble ICAM-1: soluble ICAM-1, specific inhibitor of rhinovirus infection (protein, UniProt P05362 28-480, looked up)
extracellular domain: QTSVSPSKVILPRGGSVLVTCSTSCDQPKLLGIETPLPKKELLLPGNNRKVYELSNVQEDSQPMCYSNCPDGQSTAKTFLTVYWTPERVELAPLPSWQPVGKNLTLRCQVEGGAPRANLTVVLLRGEKELKREPAVGEPAEVTTTVLVRRDHHGANFSCRTELDLRPQGLELFENTSAPYQLQTFVLPATPPQLVSPRVLEVDTQGTVVCSLDGLFPVSEAQVHLALGDQRLNPTVTYGNDSFSAKASVSVTAEDEGTQRLTCAVILGNQSQETLQTVTIYSFPAPNVILTKPEVSEGTEVTVKCEAHPRAKVTLNGVPAQPLGPRAQLLLKATPEDNGRSFSCSATLEVAGQLIHKNQTRELRVLYGPRLDERDCPGNWTWPENSQQTPMCQAWGNPLPELKCLKDGTFPLPIGESVTVTRDLEGTYLCRARSTQGEVTRKVTVNVLSPRYE
modifications: extracellular domain

Columns and labels:
[1] = target: T1, interaction between ICAM-1 and LFA-1 (Homo sapiens, UniProt P05107+P20701); test: Adhesion of JY cells to TNF-α stimulated human endothelial cells (JY-EC); assay type: cell-based; conditions: for IC50: JY cells on TNF-α stimulated human endothelial cells, 30 minutes at 37° C., read-out: JY-EC IC50 (concentration at which adhesion is inhibited to 50% of control level)
T1 construct: endogenous in cells; host or cells: JY (human B cell line) for LFA-1; TNF-alpha stimulated HUVEC (Clonetics) for ICAM-1
T1 sequence (P20701 26-1170): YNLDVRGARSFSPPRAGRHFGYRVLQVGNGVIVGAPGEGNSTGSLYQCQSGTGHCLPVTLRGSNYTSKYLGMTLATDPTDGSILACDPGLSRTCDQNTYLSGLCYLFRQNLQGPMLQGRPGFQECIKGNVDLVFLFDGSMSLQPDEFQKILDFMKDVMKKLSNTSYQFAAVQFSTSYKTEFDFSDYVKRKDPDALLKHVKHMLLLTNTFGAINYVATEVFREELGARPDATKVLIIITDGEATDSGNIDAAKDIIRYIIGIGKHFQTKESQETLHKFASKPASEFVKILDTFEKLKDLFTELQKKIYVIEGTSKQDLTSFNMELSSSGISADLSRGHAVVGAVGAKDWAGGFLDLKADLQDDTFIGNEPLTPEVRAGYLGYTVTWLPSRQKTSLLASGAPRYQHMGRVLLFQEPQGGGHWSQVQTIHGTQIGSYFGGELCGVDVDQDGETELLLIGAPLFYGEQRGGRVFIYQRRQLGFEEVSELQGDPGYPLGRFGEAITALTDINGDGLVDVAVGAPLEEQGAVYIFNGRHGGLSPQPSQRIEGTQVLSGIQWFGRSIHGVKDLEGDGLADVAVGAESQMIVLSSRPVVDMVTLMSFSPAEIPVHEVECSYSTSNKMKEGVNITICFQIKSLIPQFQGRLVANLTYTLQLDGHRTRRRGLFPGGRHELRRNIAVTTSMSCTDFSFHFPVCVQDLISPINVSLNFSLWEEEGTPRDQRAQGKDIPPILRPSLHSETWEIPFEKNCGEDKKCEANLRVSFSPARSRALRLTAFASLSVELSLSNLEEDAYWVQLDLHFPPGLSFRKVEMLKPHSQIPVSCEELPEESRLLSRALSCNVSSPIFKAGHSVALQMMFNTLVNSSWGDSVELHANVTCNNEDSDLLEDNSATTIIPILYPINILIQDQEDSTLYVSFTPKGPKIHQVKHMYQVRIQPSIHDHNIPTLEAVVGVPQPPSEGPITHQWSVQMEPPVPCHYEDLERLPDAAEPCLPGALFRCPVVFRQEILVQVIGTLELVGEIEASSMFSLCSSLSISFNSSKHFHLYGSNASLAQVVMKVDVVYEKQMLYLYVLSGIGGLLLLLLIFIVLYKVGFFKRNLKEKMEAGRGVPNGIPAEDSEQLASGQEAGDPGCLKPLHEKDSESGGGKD
T1 sequence (P05107 23-769): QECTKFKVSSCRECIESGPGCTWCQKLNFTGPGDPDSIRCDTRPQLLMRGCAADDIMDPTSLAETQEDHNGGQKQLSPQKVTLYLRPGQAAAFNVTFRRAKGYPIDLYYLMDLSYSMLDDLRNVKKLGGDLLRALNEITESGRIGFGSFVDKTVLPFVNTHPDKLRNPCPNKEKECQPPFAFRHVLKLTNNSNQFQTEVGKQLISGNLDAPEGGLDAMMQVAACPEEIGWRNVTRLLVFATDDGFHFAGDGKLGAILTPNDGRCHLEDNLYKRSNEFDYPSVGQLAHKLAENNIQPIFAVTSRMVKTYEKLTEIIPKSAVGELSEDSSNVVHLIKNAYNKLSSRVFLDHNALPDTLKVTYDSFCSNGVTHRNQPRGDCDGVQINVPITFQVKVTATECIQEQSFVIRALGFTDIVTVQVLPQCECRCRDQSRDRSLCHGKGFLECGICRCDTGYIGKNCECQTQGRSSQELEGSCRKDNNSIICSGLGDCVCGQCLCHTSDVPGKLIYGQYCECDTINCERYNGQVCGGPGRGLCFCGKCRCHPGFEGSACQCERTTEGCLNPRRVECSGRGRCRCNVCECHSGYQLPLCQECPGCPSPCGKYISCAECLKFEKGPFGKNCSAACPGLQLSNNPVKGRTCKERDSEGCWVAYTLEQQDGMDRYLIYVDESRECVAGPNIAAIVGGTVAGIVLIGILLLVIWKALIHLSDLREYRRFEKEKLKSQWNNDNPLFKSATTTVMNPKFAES
From the text: In order to establish the pharmacological properties of the compounds of formula (I) as a method of treatment for immuno-inflammatory disease in a patient suffering therefrom--such diseases being for the most part, but not limited exclusively to, graft rejection, ischemia reperfusion, asthma/allergy, delayed type hypersensitivity and AIDS--an in vitro assay was used to determine the effect of the compounds of the present invention on β2 mediated adhesion. Because human endothelial cells (EC's) express low levels of ICAM-1 on their surface and stimulation with TNF-α increases its expression, adhesion of lymphocytes can be measured following the principal assay design as described below for the human B cell line JY.
A. Cell Adhesion to Stimulated Endothelial Cells
Human umbilical vein endothelial cells (HUVEC) were purchased from Clonetics (San Diego, Calif.) at passage number 2. The cells were growth on 0.5% porcine skin gelatin pre-coated flasks (Sigma, St. Louis, Mo.) in EGM-UV media (Clonetics, San Diego, Calif.) supplemented with 10% fetal bovine serum. Cells are re-fed every 2-3 days, reaching confluence by day 4 to 6. […] The endothelial cells are not used following passage 7. Endothelial cells are grown to confluency in 96-well micro-titer assay plate.
The human B cell line JY was cultured in RPMI media containing 10% fetal calf serum at 37° C. in a humidified CO2 atmosphere. JY cells are loaded with the fluorescent dye indicator BCECF as follows: JY cells are washed twice with HBSS and cells are then re-suspended in HBSS at 5×10^6 cells/ml; BCECF-AM (Molecular Probes), stock concentration=1 mg/ml in DMSO, is added to the JY cells to a final concentration of 2 μg/ml; cells are incubated in the dark at 37° C. for 30-45 minutes; washed twice with HBSS and used in the assay.
The compounds presented in this invention are typically dissolved in 2.5 mg HSA/ml DME at four times the assay concentration and pH adjusted with 7.5% Na bicarbonate as needed. A confluent monolayer of human EC's in microtiter plates is stimulated with 50 U/ml TNF-α for 20 hours, and on the next day washed twice with DMEM-HSA before use. The EC's may be fixed by treatment with 3% paraformaldehyde. The assay plate is placed on ice, and test compound is added to quadruplicate wells, then all wells received 2.5×10^5 labeled JY cells and an optional stimulus (e.g. phorbol ester). Plates are incubated for 30 minutes at 37° C. in a CO2 incubator. Plates are washed four times with 100 μl PBS/well and the fluorescence of the adherent cells is measured using a fluorescence reader. Fluorescence in each well is measured as Arbitrary Fluorescence Units and percent adhesion in the absence of peptide is adjusted to 100% and the percent adhesion in the presence of peptides is calculated. Inhibitory concentrations (IC50) are determined based on 100% adhesion of cells that were incubated in the absence of drugs. Stimulation of protein kinase C by phorbol esters such as […] (PMA) increases the observed adhesion approximately 5-fold. This PMA induced adhesion is 100% blocked by anti-LFA-1 or anti-CD18 antibodies and about 75-80% by anti-ICAM-1 antibodies, while it is unaffected by antibodies to Mac-1, α4 or control antibodies. Thus, this assay measures preferentially the interaction between ICAM-1 and LFA-1.

[2] = system: U937 cells; assay type: cell-based
From the text: (§1) The activity in the assay was not due to cytotoxic activity of the compounds.

[3] = system: JY cells; test: Proliferation of JY cells (cytotoxicity evaluation); assay type: cell-based, human
From the text: as §1

[4] = system: rhinovirus; conditions: Martin, S. D. et al.; cited from earlier work

Row | Molecule | IC50 [1] [µM] | further results
1 | O=S(=O)(c1ccc2c(Cl)cccc2c1)N1CC2CCC(C2)C1 [Example 17, 3-(5-Chloro-2-naphthylsulfonyl)-3-azabicyclo[3.2.1]-octane] | 15 | 
2 | O=S(=O)(NC12CC3CC(CC(C3)C1)C2)c1ccc2c(Cl)cccc2c1 [Example 3, 1-(5-Chloro-2-naphthylsulfonyl)-1-aminoadamantane] | 3 | inhibition of proliferation of U937 cells [2]: did not inhibit the proliferation of JY cells or U937 cells; inhibition of proliferation of JY cells ([3]; at concentrations active in the adhesion assay, measured after 20 hours): did not inhibit the proliferation of JY cells
3 | O=S(=O)(c1ccc2ncccc2c1)N1CC2CC3CC(C2)CC1C3 [Example 31, 4-(6-Quinolinesulfonyl)-4-azahomoadamantane] | 5 | 
4 | O=S(=O)(c1cc(OCc2cccnc2)c2ccccc2c1)N1CC2CCC(CC2)C1 [Example 54, 3-[1-(3-Pyridinylmethoxy)-3-naphthylsulfonyl]-3-azabicyclo[3.2.2]nonane] | 4.4 | 
5 | COc1ccc(S(=O)(=O)N2CC3CCC(CC3)C2)c2ccccc12 [Example 44, 3-(4-Methoxy-1-naphthylsulfonyl)-3-azabicyclo[3.2.2]nonane] | 1.6 | 
6 | Nc1cccc2cc(S(=O)(=O)N3CC4CCC(CC4)C3)ccc12 [Example 35, 3-(5-Amino-2-naphthylsulfonyl)-3-azabicyclo[3.2.2]nonane] | 13.6 | 
7 | O=S(=O)(c1ccc2c(Cl)cccc2c1)N1CC2CCC(CC2)C1 [Example 5, 3-(5-Chloro-2-naphthylsulfonyl)-3-azabicyclo[3.2.2]nonane] | 0.5 | inhibition of proliferation of U937 cells [2]: did not inhibit the proliferation of JY cells or U937 cells; inhibition of proliferation of JY cells [3]: did not inhibit the proliferation of JY cells
8 | CCCCCCCCCCCCCC(=O)O[C@@H]1[C@@H](C)[C@@]2(O)[C@@H](C=C(CO)C[C@]3(O)C(=O)C(C)=C[C@@H]23)[C@@H]2C(C)(C)[C@]12OC(C)=O [13,14-phorbol myristate acetate (PMA), 13,14-phorbol myristate acetate, reference compound] |  | increase of observed adhesion ([1]; stimulation of protein kinase C by PMA): approximately 5 fold
9 | O=S(=O)(c1ccc2c(Cl)cccc2c1)N1CC2CC1CS2 (stereo not drawn) [Example 20, 5-(5-Chloro-2-naphthylsulfonyl-2-thia-5-azabicyclo-2.2.1]heptane] | 6 | 
10 | O=S(=O)(c1ccc2c(Cl)cccc2c1)N1CC2CC3CC(C2)CC1C3 [Example 18, 4-(5-Chloro-2-naphthylsulfonyl)-4-azahomoadamantane] | 0.25 | 
11 | O=S(=O)(c1ccc2c(Cl)cccc2c1)N1CC2CC1CO2 (stereo not drawn) [Example 21, 5-(5-Chloro-2-naphthylsulfonyl)-2-oxa-5-azabicyclo-[2.2.1]heptane] | 86 | 
12 | O=S(=O)(c1cc(OCc2cccnc2)c2ccccc2c1)N1CC2CC3CC(C2)CC1C3 [Example 55, 4-[1-(3-Pyridinylmethoxy)-3-naphthylsulfonyl]-4-azahomoadamantane] | 2.1 | 
13 | O=C(O)C12CC3CC(CC(NS(=O)(=O)c4ccc5c(Cl)cccc5c4)(C3)C1)C2 [Example 24, 1-(5-Chloro-2-naphthylsulfonyl)-1-amino-3-adamantane-carboxylic acid] | 136 | 
14 | O=S(=O)(c1ccc2ncccc2c1)N1CC2CCC(CC2)C1 [Example 29, 3-(6-Quinolinesulfonyl)-3-azabicyclo[3.2.2]nonane] | 8 | 
15 | O=S(=O)(NC12CC3CC(CC(C3)C1)C2)c1ccc2ncccc2c1 [Example 30, 1-(6-Quinolinesulfonyl)-1-aminoadamantane] | 23 | 
16 | CC(=O)Oc1cccc2cc(S(=O)(=O)NC34CC5CC(CC(C5)C3)C4)ccc12 [Example 15, 1-(5-Acetoxy-2-naphthylsulfonyl)-1-aminoadamantane] | 56 | 
17 | B1 |  | inhibition of rhinovirus infection [4]: act as specific inhibitor of rhinovirus infection
